Experimental data from ChEMBL document CHEMBL5338747, “Discovery of Quaternized Pyridine-Thiazole-Pleuromutilin Derivatives with Broad-Spectrum Antibacterial and Potent Anti-MRSA Activity” (J Med Chem, 2023).
Converted amounts (≈) assume the structure as drawn. Blank lines part the entries; values can stand above or below the compound they belong to. The source made the active and inactive calls. The calls are words filed in the database; no cut-off is given here.

Columns and labels:
Escherichia coli [1] = test: Antibacterial activity against Escherichia coli CMCC 44103 assessed as inhibition of bacterial growth incubated for 24 hrs by broth microdilution method; assay type: functional
Staphylococcus aureus [2] = test: Antibacterial activity against methicillin-resistant Staphylococcus aureus ATCC 33591 infected in Kunming mouse assessed as reduction in bacterial load in liver at 10 mg/kg, ip for 2 days starting from 1 hr post-infection by hematoxylin-eosin staining based analysis; assay type: functional, organism-based; details: time 2.0 day
Escherichia coli [3] = test: Disruption of biofilm formation in Escherichia coli ATCC 25922 assessed as inhibition of biofilm formation at 4XMIC measured after 24 hrs by crystal violet staining based analysis; assay type: functional
Staphylococcus aureus [4] = test: Antibacterial activity against methicillin-resistant Staphylococcus aureus ATCC 33591 infected in Kunming mouse assessed as reduction in bacterial load in lungs at 10 mg/kg, ip for 2 days starting from 1 hr post-infection by hematoxylin-eosin staining based analysis; assay type: functional, organism-based; details: time 2.0 day
[5] = test system: Staphylococcus epidermidis; test: Antibacterial activity against methicillin-resistant Staphylococcus epidermidis ATCC 51625 assessed as inhibition of bacterial growth incubated for 24 hrs by broth microdilution method; assay type: functional
Staphylococcus aureus [6] = test: Antibacterial activity against methicillin-resistant Staphylococcus aureus ATCC 33591 infected in Kunming mouse assessed as animal survival rate at 5 mg/kg, ip for 7 days starting from 1 hr post-infection; assay type: functional; details: time 7.0 day
[7] = Cytotoxicity against human A549 cells assessed as reduction in cell viability measured after 48 hrs by CCK8 assay; assay type: toxicity, cell-based
Salmonella enterica = test: Antibacterial activity against Salmonella enterica ATCC 14028 assessed as inhibition of bacterial growth incubated for 24 hrs by broth microdilution method; assay type: functional
Staphylococcus aureus [8] = test: Disruption of biofilm formation in methicillin-resistant Staphylococcus aureus ATCC 33591 assessed as inhibition of biofilm formation at 4XMIC measured after 24 hrs by crystal violet staining based analysis; assay type: functional
Staphylococcus aureus [9] = test: Antibacterial activity against […] assessed as inhibition of bacterial growth incubated for 24 hrs by broth microdilution method; assay type: functional; details: ATCC 29213
[10] = Cytotoxicity against human HEK293 cells assessed as reduction in cell viability measured after 48 hrs by CCK8 assay; assay type: toxicity, cell-based
Escherichia coli [11] = test: Disruption of biofilm formation in Escherichia coli ATCC 25922 assessed as inhibition of biofilm formation at MIC measured after 24 hrs by crystal violet staining based analysis; assay type: functional
Staphylococcus aureus [12] = test: Antibacterial activity against methicillin-resistant Staphylococcus aureus ATCC 33591 infected in Kunming mouse assessed as reduction in bacterial load in kidney at 10 mg/kg, ip for 2 days starting from 1 hr post-infection by hematoxylin-eosin staining based analysis; assay type: functional, organism-based; details: time 2.0 day
Staphylococcus aureus [13] = test: Disruption of biofilm formation in methicillin-resistant Staphylococcus aureus ATCC 33591 assessed as inhibition of biofilm formation at MIC measured after 24 hrs by crystal violet staining based analysis; assay type: functional
[14] = Aqueous solubility of the compound in physiological saline measured after 12 hrs by UV spectrophotometric analysis; assay type: physicochemical
[15] = Cytotoxicity against human HepG2 cells assessed as reduction in cell viability measured after 48 hrs by CCK8 assay; assay type: toxicity, cell-based
Staphylococcus aureus [16] = test: Antibacterial activity against methicillin-resistant Staphylococcus aureus ATCC 33591 assessed as inhibition of bacterial growth incubated for 24 hrs by broth microdilution method; assay type: functional
Acinetobacter baumannii = test: Antibacterial activity against Acinetobacter baumannii ATCC 19606 assessed as inhibition of bacterial growth incubated for 24 hrs by broth microdilution method; assay type: functional
Escherichia coli [17] = test: Antibacterial activity against Escherichia coli ATCC 25922 assessed as inhibition of bacterial growth incubated for 24 hrs by broth microdilution method; assay type: functional
Staphylococcus aureus [18] = test: Antibacterial activity against methicillin-resistant Staphylococcus aureus ATCC 43300 assessed as inhibition of bacterial growth incubated for 24 hrs by broth microdilution method; assay type: functional
Staphylococcus aureus [19] = test: Antibacterial activity against methicillin-resistant Staphylococcus aureus ATCC 33591 infected in ip dosed Kunming mouse assessed as protection against bacterial infection administered for 7 days starting from 1 hr post-infection; assay type: functional
Mycoplasma genitalium = test: Anti-mycoplasma activity against Mycoplasma genitalium G37 ATCC33530 assessed as inhibition of mycoplasma growth measured after 7 days by broth microdilution method; assay type: functional; details: Mycoplasmoides genitalium, G37 ATCC33530, 168 h; time 7 day
Mycoplasmopsis synoviae = test: Anti-mycoplasma activity against Mycoplasma synoviae WVU1853 NCTC10124 assessed as inhibition of mycoplasma growth measured after 7 days by broth microdilution method; assay type: functional; details: WVU1853 NCTC10124, 168 h, time 7 day
[20] = test system: Mycoplasmoides pneumoniae; test: Anti-mycoplasma activity against Mycoplasma pneumoniae M129 ATCC15531 assessed as inhibition of mycoplasma growth measured after 7 days by broth microdilution method; assay type: functional; details: M129 ATCC15531, 168 h, time 7 day
Metamycoplasma hominis = test: Anti-mycoplasma activity against Mycoplasma hominis PG-21 ATCC23114 assessed as inhibition of mycoplasma growth measured after 7 days by broth microdilution method; assay type: functional; details: PG-21 ATCC23114, 168 h, time 7 day
Mesomycoplasma hyorhinis = test: Anti-mycoplasma activity against Mycoplasma hyorhinis BTS-7 NCTC10130 assessed as inhibition of mycoplasma growth measured after 7 days by broth microdilution method; assay type: functional; details: BTS-7 NCTC10130, 168 h, time 7 day
[21] = test system: Mesomycoplasma hyopneumoniae; test: Anti-mycoplasma activity against Mycoplasma hyopneumoniae J NCTC10110 assessed as inhibition of mycoplasma growth measured after 7 days by broth microdilution method; assay type: functional; details: J NCTC10110, 168 h, time 7 day
[22] = test system: Mycoplasmoides gallisepticum; test: Anti-mycoplasma activity against Mycoplasma gallisepticum R NCTC10115 assessed as inhibition of mycoplasma growth measured after 7 days by broth microdilution method; assay type: functional; details: R NCTC10115, 168 h, time 7 day
[23] = test system: Mesomycoplasma hyopneumoniae; test: Anti-mycoplasma activity against Mycoplasma hyopneumoniae LH assessed as inhibition of mycoplasma growth measured after 7 days by broth microdilution method; assay type: functional; details: 168 h, time 7 day

Structure (SMILES): C=C[C@]1(C)C[C@@H](OC(=O)CSC(C)(C)CNC(=O)[C@H](N)C(C)C)[C@]2(C)[C@H](C)CC[C@]3(CCC(=O)[C@H]32)[C@@H](C)[C@@H]1O [VALNEMULIN]
MIC (Escherichia coli [1]): 64 µg/mL (≈ 113 µM)
Activity (Staphylococcus aureus [2]): Active
inhibition (INH) (Escherichia coli [3]): 64.02%
Activity (Staphylococcus aureus [4]): Active
MIC [5]: 64 µg/mL (≈ 113 µM)
Activity (Staphylococcus aureus [6]): Active
CC50 at 48 h [7]: 88 µM
MIC (Salmonella enterica): 64 µg/mL (≈ 113 µM)
inhibition (INH) (Staphylococcus aureus [8]): 68.59%
MIC (Staphylococcus aureus [9]): 4 µg/mL (≈ 7.08 µM)
CC50 at 48 h [10]: 65.4 µM
inhibition (INH) (Escherichia coli [11]): 26.52%
Activity (Staphylococcus aureus [12]): Active
inhibition (INH) (Staphylococcus aureus [13]): 38.1%
solubility at 12 h [14]: 341 µM (≈ 193 µg/mL)
CC50 at 48 h [15]: 87.3 µM
MIC (Staphylococcus aureus [16]): 128 µg/mL (≈ 227 µM)
MIC (Acinetobacter baumannii): 2 µg/mL (≈ 3.54 µM)
MIC (Escherichia coli [17]): 16 µg/mL (≈ 28.3 µM)
MIC (Staphylococcus aureus [18]): 8 µg/mL (≈ 14.2 µM)
ED50 (Staphylococcus aureus [19]; ATCC 33591, 168 h, time 7 day): 12.3 mg/kg
Activity (Staphylococcus aureus [19]; time 7.0 day): Dose-Dependent Effect

MIC (Mycoplasma genitalium): 0.03 µg/mL (≈ 0.0608 µM)
MIC (Mycoplasmopsis synoviae): 2 µg/mL (≈ 4.05 µM)
MIC [20]: 0.125 µg/mL (≈ 0.253 µM)
MIC (Metamycoplasma hominis): 0.25 µg/mL (≈ 0.506 µM)
MIC (Mesomycoplasma hyorhinis): 0.03 µg/mL (≈ 0.0608 µM)
solubility at 12 h [14]: 227 µM (≈ 112 µg/mL)
MIC [21]: 0.03 µg/mL (≈ 0.0608 µM)
MIC [22]: 0.125 µg/mL (≈ 0.253 µM)
MIC [23]: 0.015 µg/mL (≈ 0.0304 µM)
Structure (SMILES): C=C[C@]1(C)C[C@@H](OC(=O)CSCCN(CC)CC)[C@]2(C)[C@H](C)CC[C@]3(CCC(=O)[C@H]32)[C@@H](C)[C@@H]1O [TIAMULIN]
